Results: PMC4569695, “Optogenetic manipulation of cGMP in cells and animals by the tightly light-regulated guanylyl-cyclase opsin CyclOp” (Nature Communications, 2015)

Target: T1, bPGC (Beggiatoa sp. PS, UniProt Z9M4H6XJE9, K200E/D268K/T270G)
T1 construct: triple mutant of human codon-optimized bPAC, C-terminal YFP, expressed in Xenopus oocytes
T1 sequence (Z9M4H6XJE9 4-353 K200E/D268K/T270G): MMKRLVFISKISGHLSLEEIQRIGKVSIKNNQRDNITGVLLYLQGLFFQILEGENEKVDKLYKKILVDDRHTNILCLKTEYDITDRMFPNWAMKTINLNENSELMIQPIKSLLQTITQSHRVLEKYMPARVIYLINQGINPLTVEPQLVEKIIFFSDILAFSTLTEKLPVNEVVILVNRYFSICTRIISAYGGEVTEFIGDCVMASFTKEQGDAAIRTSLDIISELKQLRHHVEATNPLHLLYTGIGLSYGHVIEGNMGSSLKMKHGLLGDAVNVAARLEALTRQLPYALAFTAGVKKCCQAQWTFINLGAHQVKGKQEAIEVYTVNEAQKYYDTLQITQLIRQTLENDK
Test: cGMP immunoassay, extracts of intact oocytes
Type: cell-based
Conditions: endogenous GTP, 464 nm light

Compound: Nc1nc2c(ncn2[C@@H]2O[C@H](COP(=O)(O)OP(=O)(O)OP(=O)(O)O)[C@@H](O)[C@H]2O)c(=O)[nH]1 [GTP]
- cGMP immunoassay, extracts of intact oocytes: bPGC produced at least one cAMP for every four cGMP molecules under in vivo conditions
